In PubChem BioAssay AID1223 (NMMLSC, 2008):
Calls of active or inactive are those of the source.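 The calls were made as follows: active = total score of at least 50 of 100, built from tracer displacement at 10 µM, potency and curve span; inactive = total score under 50.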

biological target: Estrogen receptor (Homo sapiens) (UniProt P03372); test: ERalpha binding competitors, concentration series, dose response, cell-based, Cos7 ERalpha-GFP, flow cytometry (AID 1223); conditions: E2-Alexa633 competitive binding
Sequence (P03372 whole entry, looked up): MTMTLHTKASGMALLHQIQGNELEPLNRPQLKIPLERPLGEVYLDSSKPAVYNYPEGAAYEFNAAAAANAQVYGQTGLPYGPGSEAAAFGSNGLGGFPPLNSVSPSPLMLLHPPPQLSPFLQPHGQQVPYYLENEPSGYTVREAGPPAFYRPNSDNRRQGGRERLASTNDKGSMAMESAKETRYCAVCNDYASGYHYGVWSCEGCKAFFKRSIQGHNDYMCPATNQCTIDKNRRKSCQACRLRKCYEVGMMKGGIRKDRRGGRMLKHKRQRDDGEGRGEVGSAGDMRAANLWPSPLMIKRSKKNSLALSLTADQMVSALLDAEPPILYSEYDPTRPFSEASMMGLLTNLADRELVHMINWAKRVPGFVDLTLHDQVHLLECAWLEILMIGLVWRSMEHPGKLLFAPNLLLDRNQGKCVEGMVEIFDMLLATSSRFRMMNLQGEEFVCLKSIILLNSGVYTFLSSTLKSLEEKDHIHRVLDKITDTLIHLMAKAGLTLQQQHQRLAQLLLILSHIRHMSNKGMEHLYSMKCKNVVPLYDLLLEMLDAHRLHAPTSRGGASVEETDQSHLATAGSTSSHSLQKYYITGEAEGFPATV

Row | SMILES | EC50
1 | CCn1c(=NC(=O)c2ccc(N3C(=O)CCC3=O)cc2)sc2c(OC)ccc(OC)c21 | > 10 µM (inactive)

same assay, conditions: E2-Alexa633 competitive binding, at 10 µM (top of the series)

Row | SMILES | fluorescent ligand binding remaining
2 | CCc1nc2sc3ccccc3c(=O)c2c(=O)n1Cc1ccco1 | inactive
3 | O=S(=O)(NCCc1csc(-c2cccnc2)n1)c1ccc(Cl)s1 | inactive
4 | Cc1oc2cc(O)ccc2c(=O)c1Oc1ccccc1 | 42%
5 | O=C1NC(c2ccc(Br)cc2)Nc2sc3c(c21)CCC3 (stereo unspecified) | inactive
6 | COc1ccc(NC(=O)C(c2ccccc2)N(C)C(=O)c2ccc(=O)[nH]c2)cc1 (stereo unspecified) | 50.7%
7 | CCc1ccc(-c2nn(-c3ccccc3)cc2CSC(=N)N)cc1 | inactive
8 | C[C@]12CC[C@@H]3c4ccc(O)cc4C(=O)C[C@H]3[C@@H]1CC[C@@H]2O | inactive
9 | N=C1C(c2nc3ccccc3[nH]2)=C(O)CN1c1ccc(CC(=O)O)cc1 | inactive
10 | C[C@H]1CCC[C@@H](O)CCC/C=C/c2cc(O)cc(O)c2C(=O)O1 | inactive
11 | COc1cccc(C2Nc3c(F)cc(Br)cc3C3C=CCC32)c1OC (stereo unspecified) | inactive
12 | CCNC(=O)c1ccc2c(c1)C1C3CCC(C3)C1C(c1ccccc1)N2 (stereo unspecified) | inactive
13 | CC(=O)Nc1ccc(OC(=O)CC2SC(=O)NC2=O)cc1 (stereo unspecified) | inactive
14 | Oc1ccc(-c2nc(-c3ccc(O)c(O)c3)cs2)cc1 | inactive
15 | Nc1ccc(-c2nc3ccc([N+](=O)[O-])cc3[nH]2)cc1 | 63.9%
16 | Cc1cc(C)c2c(c1)NC(c1cc3c(cc1Br)OCO3)C1CC=CC21 (stereo unspecified) | inactive
17 | O=C(O)c1ccc2c(c1)C1C(Cl)C(Sc3ccccc3[N+](=O)[O-])CC1C(c1cccc([N+](=O)[O-])c1)N2 (stereo unspecified) | inactive
18 | O=C1/C(=C\c2ccco2)SC(=S)N1c1ccc(O)cc1 | inactive

Row | SMILES | fluorescent ligand binding remaining
19 | CCCCCCNC(=O)c1cc(-c2ccco2)nc2ccccc12 | inactive
20 | Cc1nn(-c2ccccc2)c(/N=C/c2ccc(O)cc2)c1-c1ccccc1 | inactive
21 | Cc1ccc(-n2c(=O)c(C#N)cc3c(=O)n4cccc(C)c4nc32)cc1 | inactive
22 | Oc1ccc(-c2nc3ccc4ccccc4c3c3c2CCC3)cc1O | inactive
23 | Cc1ccc(C(=O)N/N=C/c2ccc([N+](=O)[O-])s2)cc1 | inactive
24 | Nc1ncnc2c1ncn2C1CCC(CO)C(O)C1 (stereo unspecified) | inactive
25 | CCCCOC(=O)c1c(C)oc2ccc(NS(=O)(=O)c3ccc4c5c(cccc35)C(=O)N4)cc12 | inactive
26 | C/C=C(/C(=C/C)c1ccc(O)cc1)c1ccc(O)cc1 | inactive
27 | Cc1cc(-c2nn3c(-c4ccccc4)nnc3s2)c2ccccc2n1 | inactive
28 | COc1ccc(/C=N/NC(=O)c2nc(-c3ccccc3)cc(-c3ccccc3)n2)cc1O | 44.4%
29 | CC(=O)c1ccc2c(c1)C1C=CCC1C(c1ccc(S(=O)(=O)N3CCOCC3)cc1)N2 (stereo unspecified) | inactive
30 | O=C(Cc1cccs1)Nc1ccc(S(=O)(=O)Nc2ncccn2)cc1 | inactive
31 | CCn1nnc(NC(=O)CSc2ccc(Cl)cc2)n1 | 68.5%
32 | Cc1cc([N+](=O)[O-])c2c(c1C)C1C=CCC1C(c1ccccn1)N2 (stereo unspecified) | 27.9%
33 | CCC(=O)Oc1ccc(/C(CC)=C(\CC)c2ccc(OC(=O)CC)cc2)cc1 | 22.8%
34 | O=C(c1cc2ncc(Br)cn2n1)N1CCN(C(=O)c2ccco2)CC1 | inactive
35 | CCC(=O)Oc1ccc(C(CC)C(CC)c2ccc(OC(=O)CC)cc2)cc1 (stereo unspecified) | 19.9%

same assay, conditions: E2-Alexa633 competitive binding, at 100 µM (top of the series)

Row | SMILES | fluorescent ligand binding remaining
36 | O=C(O)c1ccc([N+](=O)[O-])c2c1NC(c1ccccc1)C1CC=CC21 (stereo unspecified) | inactive
